According to patent publication US20250049948A1, “NOVEL IONIZABLE LIPIDS AND LIPID NANOPARTICLES AND METHODS OF USING THE SAME” (Sail Biomedicines, Inc., priority 2021, published 2025):

Key:
[1] = mRNA encapsulation efficiency, Quant-iT RiboGreen RNA Assay; assay type: physicochemical
Procedure: (§1) For each LNP composition, the lipid mix and mRNA solution were mixed at a 1:3 ratio by volume, respectively, on a NanoAssemblr Ignite (Precision Nanosystems) at a total flow rate of 9 mL/min. The resulting compositions were then loaded into Slide-A-Lyzer G2 dialysis cassettes (10 k MWCO) and dialyzed in 200 times sample volume of 1×PBS for 2 hours at room temperature with gentle stirring. The PBS was refreshed, and the compositions were further dialyzed for at least 14 hours at 4° C. with gentle stirring. The dialyzed compositions were then collected and concentrated by centrifugation at 3000×g using Amicon Ultra centrifugation filters (100 k MWCO). The concentrated particles were characterized for size, polydispersity, and particle concentration using Zetasizer Ultra (Malvern Panalytical) and for mRNA encapsulation efficiency using Quant-iT RiboGreen RNA Assay Kit (ThermoFisher Scientific).

[2] = LNP size and polydispersity, Zetasizer Ultra; assay type: physicochemical
Procedure: as §1

[3] = test system: Balb/c mice; assay: In-vivo bioluminescent imaging of LNP compositions (Example 6); conditions: for Bioluminescence (IV) Liver / Bioluminescence (IV) Lung / Bioluminescence (IV) Spleen / Bioluminescence (IV) Whole Body: 4-6 hours post-dose; for Spleen: Liver Ratio: intravenous
[4] = Apparent LNP pKa, TNS assay; assay type: physicochemical; conditions: LNP with FLUC/EPO 1:1 mRNA
Procedure: For pKa measurement, a […] assay was conducted according to those described in Sabnis et al., Molecular Therapy, 26(6):1509-19), which is incorporated herein by reference in its entirety. Briefly, 20 buffers (10 mM sodium phosphate, 10 mM sodium borate, 10 mM sodium citrate, and 150 mM sodium chloride, in distilled Water) of unique pH values ranging from 3.0-12.0 were prepared using 1M sodium hydroxide and 1M hydrochloric acid. 3.25 μL of a LNP composition (0.04 mg/mL mRNA, in PBS) was incubated with 2 μL of TNS reagent (0.3 mM, in DMSO) and 90 μL of buffer for each pH value (described above) in a 96-well black-walled plate. Each pH condition was performed in triplicate wells. The TNS fluorescence was measured using a Biotek Cytation Plate reader at excitation/emission wavelengths of 321/445 nm. The fluorescence values were then plotted and fit using a 4-parameter sigmoid curve. From the fit, the pH value yielding the half-maximal fluorescence was calculated and reported as the apparent LNP pKa value.

[5] = test system: Balb/c mice; assay: EPO levels in plasma, EPO MSD kit (Example 6); assay type: in vivo; conditions: mRNA dose 5 μg FLUC + 5 μg EPO, intravenous
[6] = mRNA dose 5 μg FLUC (CRE/FLUC 1:1 LNP)

Compound | % EE ([1]; LNP with CRE/FLUC 1:1 mRNA) [%] | PDI ([2]; LNP with CRE/FLUC 1:1 mRNA) | Size (nm) ([2]; LNP with CRE/FLUC 1:1 mRNA) | Bioluminescence (IV) Liver [3, 6] | Bioluminescence (IV) Lung [3, 6] [E + 03] | Bioluminescence (IV) Spleen [3, 6] | Bioluminescence (IV) Whole Body [3, 6] | Spleen: Liver Ratio [3, 6] | % EE ([1]; LNP with FLUC/EPO 1:1 mRNA) [%] | PDI ([2]; LNP with FLUC/EPO 1:1 mRNA) | Size (nm) ([2]; LNP with FLUC/EPO 1:1 mRNA) | Bioluminescence (IV) Liver ([3]; mRNA dose 5 μg FLUC + 5 μg EPO) | Bioluminescence (IV) Lung ([3]; mRNA dose 5 μg FLUC + 5 μg EPO) | Bioluminescence (IV) Spleen ([3]; mRNA dose 5 μg FLUC + 5 μg EPO) | Bioluminescence (IV) Whole Body ([3]; mRNA dose 5 μg FLUC + 5 μg EPO) | Spleen: Liver Ratio ([3]; mRNA dose 5 μg FLUC + 5 μg EPO) | hEPO [5] | other results
CCCCCCCCC(CCCCCC)C(=O)OCCCCCCN(CCCCCCOC(=O)C(CCCCCC)CCCCCCCC)CCC(O)CN(C)C (centres unmarked) [Compound 2225, ((4-(dimethylamino)-3-hydroxybutyl)azanediyl) bis(hexane-6,1-diyl) bis(2-hexyldecanoate)] |  |  |  |  |  |  |  |  | 97.9 | 0.07 | 81.88 | 1.8E + 05 | 1.0E + 04 | 2.2E + 05 | 3.5E + 05 | 1.261 |  | pKa (TNS) [4]: 7.25
CCCCCCCCC(CCCCCC)C(=O)OCCCCCCN(CCCCCCOC(=O)C(CCCCCC)CCCCCCCC)CCOCCOCCN(C)C (centres unmarked) [Compound 2216, 11-(6-((2-hexyldecanoyl)oxy)hexyl)-2-methyl-5,8-dioxa-2,11-diazaheptadecan-17-yl 2-hexyldecanoate] |  |  |  |  |  |  |  |  | 96.8 | 0.11 | 88.81 | 3.2E + 05 | 9.0E + 03 | 3.8E + 05 | 1.5E + 06 | 1.539 |  | pKa (TNS) [4]: 7
CCCCCCC(CCCCCC)CCCOC(=O)CCCCCCCN(CCCCCCCC(=O)OCCCC(CCCCCC)CCCCCC)C(=O)CCN1CCCC1 [Compound 2142, bis(4-hexyldecyl) 8,8′-((3-(pyrrolidin-1-yl)propanoyl)azanediyl) dioctanoate] |  |  |  |  |  |  |  |  | 96.7 | 0.06 | 69.2 | 2.4E + 05 | 2.0E + 05 | 5.6E + 05 | 7.8E + 05 | 2.758 | 7.3E + 03 | 
CCCCCCC(CCCCCC)CCCOC(=O)CCCCCCCN(CCCCCCCC(=O)OCCCC(CCCCCC)CCCCCC)CCOCCOCCN(C)C [Compound 2145, 4-hexyldecyl 11-(8-((4-hexyldecyl)oxy)-8-oxooctyl)-2-methyl-5,8-dioxa-2,11-diazanonadecan-19-oate] |  |  |  |  |  |  |  |  | 97.6 | 0.21 | 95.4 | 1.1E + 05 | 7.2E + 04 | 1.2E + 03 | 4.0E + 03 | 0.012 | 8.4E + 02 | 
CCCCCCC(CCCCCC)CCCOC(=O)CCCCCCCN(CCCCCCCC(=O)OCCCC(CCCCCC)CCCCCC)CCCCN(C)C [Compound 2130, bis(4-hexyldecyl) 8,8′-((4-(dimethylamino)butyl)azanediyl) dioctanoate] |  |  |  |  |  |  |  |  | 98.5 | 0.13 | 68.7 | 7.0E + 04 | 1.4E + 05 | 3.0E + 03 | 1.2E + 04 | 0.045 | 1.5E + 02 | 
CCCCCCC(CCCCCC)CCCOC(=O)CCCCCN(CCCCCC(=O)OCCCC(CCCCCC)CCCCCC)C(=O)CCN1CCCC1 [Compound 2143, bis(4-hexyldecyl) 6,6′-((3-(pyrrolidin-1-yl)propanoyl)azanediyl)dihexanoate] | 97.1 | 0.11 | 78.6 | 1.3E + 05 | 6.3 | 6.5E + 05 | 1.7E + 05 | 5.050 |  |  |  |  |  |  |  |  |  | % EE ([1]; LNP with EGFP mRNA): 97.3%; PDI ([2]; LNP with EGFP mRNA): 0.08; Size (nm) ([2]; LNP with EGFP mRNA): 83.4 nm
CCCCCC(CCCCC)CCCNC(=O)CCCCCCCN(CCCCCCCC(=O)NCCCC(CCCCC)CCCCC)C(=O)CCN1CCCC1 [Compound 2241, 8-(N-(8-oxo-8-((4-pentylnonyl)amino)octyl)-3-(pyrrolidin-1-yl)propanamido)-N-(4-pentylnonyl) octanamide] |  |  |  |  |  |  |  |  | 94.7 | 0.15 | 100.89 | 3.5E + 03 | 5.4E + 04 | 7.6E + 04 | 3.1E + 04 | 22.241 | 1.6E + 03 | 
CCCCCCC(CCCCCC)CCCOC(=O)CCCCCCCN(CCCCCCCC(=O)OCCCC(CCCCCC)CCCCCC)CCC(O)CN(C)C (centres unmarked) [Compound 2139, bis(4-hexyldecyl) 8.8′-((4-(dimethylamino)-3-hydroxybutyl)azanediyl) dioctanoate] |  |  |  |  |  |  |  |  | 98.3 | 0.18 | 88.6 | 1.7E + 05 | 2.2E + 05 | 1.0E + 05 | 4.1E + 04 | 0.583 | 2.0E + 02 | 

Further lines, with some results ahead:

% EE ([1]; LNP with CRE/FLUC 1:1 mRNA) [%] | PDI ([2]; LNP with CRE/FLUC 1:1 mRNA) | Size (nm) ([2]; LNP with CRE/FLUC 1:1 mRNA) | Compound | Bioluminescence (IV) Liver [3, 6] | Bioluminescence (IV) Lung [3, 6] [E + 03] | Bioluminescence (IV) Spleen [3, 6] | Bioluminescence (IV) Whole Body [3, 6] | Spleen: Liver Ratio [3, 6] | % EE ([1]; LNP with FLUC/EPO 1:1 mRNA) [%] | PDI ([2]; LNP with FLUC/EPO 1:1 mRNA) | Size (nm) ([2]; LNP with FLUC/EPO 1:1 mRNA) | Bioluminescence (IV) Liver ([3]; mRNA dose 5 μg FLUC + 5 μg EPO) | Bioluminescence (IV) Lung ([3]; mRNA dose 5 μg FLUC + 5 μg EPO) | Bioluminescence (IV) Spleen ([3]; mRNA dose 5 μg FLUC + 5 μg EPO) | Bioluminescence (IV) Whole Body ([3]; mRNA dose 5 μg FLUC + 5 μg EPO) | Spleen: Liver Ratio ([3]; mRNA dose 5 μg FLUC + 5 μg EPO) | hEPO [5] | other results
96.8 | 0.26 | 78.0 | CCCCCC(CCCCC)CCCOC(=O)CCCCCCCN(CCCCCCCC(=O)OCCCC(CCCCC)CCCCC)CCOCCOCCN(C)C [Compound 2144, 4-pentylnonyl 2-methyl-11-(8-oxo-8-((4-pentylnonyl)oxy)octyl)-5,8-dioxa-2,11-diazanonadecan-19-oate] | 7.4E + 04 | 1.2 | 3.0E + 04 | 7.1E + 03 | 0.401 |  |  |  |  |  |  |  |  |  | % EE ([1]; LNP with EGFP mRNA): 98.3%; PDI ([2]; LNP with EGFP mRNA): 0.29; Size (nm) ([2]; LNP with EGFP mRNA): 73.5 nm
97 | 0.35 | 112.7 | CCCCCC(CCCCC)CCCOC(=O)CCCCCCCN(CCCCCCCC(=O)OCCCC(CCCCC)CCCCC)CCC(O)CN(C)C (centres unmarked) [Compound 2138, bis(4-pentylnonyl) 8,8′-((4-(dimethylamino)-3-hydroxybutyl)azanediyl) dioctanoate] | 1.7E + 05 | 1.2 | 2.8E + 04 | 3.7E + 03 | 0.236 |  |  |  |  |  |  |  |  |  | 
96.9 | 0.16 | 86.9 | CCCCCCC(CCCCCC)CCCOC(=O)CCCCCN(CCCCCC(=O)OCCCC(CCCCCC)CCCCCC)CCC(O)CN(C)C (centres unmarked) [Compound 2140, bis(4-hexyldecyl) 6.6′-((4-(dimethylamino)-3-hydroxybutyl)azanediyl)dihexanoate] | 1.6E + 03 | 5.3 | 1.2E + 05 | 4.3E + 04 | 76.18 |  |  |  |  |  |  |  |  |  | 
96.5 | 0.26 | 81.0 | CCCCCCC(CCCCCC)CCCOC(=O)CCCCCN(CCCCCC(=O)OCCCC(CCCCCC)CCCCCC)CCOCCOCCN(C)C [Compound 2146, 4-hexyldecyl 11-(6-((4-hexyldecyl)oxy)-6-oxohexyl)-2-methyl-5,8-dioxa-2,11-diazaheptadecan-17-oate] | 9.7E + 04 | 1.2 | 4.7E + 04 | 7.4E + 03 | 0.505 |  |  |  |  |  |  |  |  |  | 
97.0 | 0.07 | 81.1 | CCCCCC(CCCCC)CCCOC(=O)CCCCCCCN(CCCCCCCC(=O)OCCCC(CCCCC)CCCCC)CCCCN(C)C [Compound 2129, bis(4-pentylnonyl) 8,8′-((4-(dimethylamino)butyl)azanediyl) dioctanoate] | 1.4E + 05 | 2.1 | 9.2E + 03 | 1.9E + 04 | 0.066 |  |  |  |  |  |  |  |  |  | 
97.7 | 0.13 | 76.3 | CCCCCC(CCCCC)CCCOC(=O)CCCCCCCN(CCCCCCCC(=O)OCCCC(CCCCC)CCCCC)C(=O)CCCN(C)C [Compound 2132, bis(4-pentylnonyl) 8,8′-((4-(dimethylamino)butanoyl)azanediyl) dioctanoate] | 1.4E + 05 | 1.7 | 2.5E + 04 | 7.0E + 03 | 0.212 |  |  |  |  |  |  |  |  |  | % EE ([1]; LNP with EGFP mRNA): 97.2%; PDI ([2]; LNP with EGFP mRNA): 0.20; Size (nm) ([2]; LNP with EGFP mRNA): 90.4 nm
